The structures appear in SMILES notation.

In one series the test system is insulin sensitivity. The conditions noted are these: mouse diabetes models; cited from earlier work.
The target in the next series is T1, serum RBP4 (Mus musculus, UniProt Q00724).
T1 construct: from tissue; host or cells: mouse serum (in vivo, oral dosing)
As to the kind of experiment: Serum RBP4 level in treated mice. The format is in vivo. The conditions noted are these: orally dosed for 3 weeks at 30 mg/kg; wild-type and Abca4−/− mice; FIG. 11. The source says:
(§1) The Abca4−/− mouse model manifests accelerated accumulation of lipofuscin in the RPE and is considered a preclinical efficacy model for a drug reducing lipofuscin accumulation. […] There was approximately a 70% reduction in the serum RBP4 level in treated animals (FIG. 11). Additionally, the inventors discovered that that the levels of A2E/isoA2E were reduced by approximately 50% in treated mice (FIG. 12).

A further series concerns the target T2, RBP4-TTR interaction (Homo sapiens, UniProt P02753).
T2 construct: made in house; host or cells: E. coli
As to the kind of experiment: TR-FRET (HTRF) RBP4-TTR interaction assay, agonist mode. In kind it is biochemical. The conditions noted are these: without retinol, FIG. 8. The source says: TR-FRET (Time-Resolved Fluorescence Resonance Energy Transfer) is an assay format that can be used in characterization of compounds affecting protein-protein interactions (31-33). […] In the presence of retinol, RBP4-TTR interaction induces FRET that can be registered as increased ratio of […] fluorescence signals. Binding of a desired RBP4 antagonist displaces retinol and induces hindrance for RBP4-TTR interaction resulting in the decreased FRET signal (FIG. 7).
The inventors developed an assay using E. coli-expressed MBP-tagged RBP4 and commercially available TTR labeled directly with Eu3+ cryptate. In addition to MBP-RBP4 and Eu3+ (K)-TTR, a detector reagent anti-MBP-d2 was present in the mix. The assay was first optimized in the agonist mode; sensitivity and dynamic range of the assay was […] in respect to RBP4, TTR and detection reagent concentrations.

The next series deals with ERG b-wave. The series can be described thus: ERG b-wave after photobleaching. The format is in vivo. The conditions noted are these: FIG. 10.
Series [1] has as its system bisretinoids (A2E/isoA2E, A2-DHP-PE, atRAL di-PE). As to the kind of experiment: Bisretinoid levels in eyes of treated mice (tissue extraction and HPLC). The format is in vivo. The conditions noted are these: orally dosed for 3 weeks at 30 mg/kg.
Excerpt: as §1
Abca4/Abcr null mutant mice (albino) homozygous for Rpe65-Leu450 are bred genotyped and housed. Posterior eyecups of mice and RPE/choroids harvested from human donor eyes (National Disease Research Interchange, Philadelphia Pa.) are homogenized in phosphate buffered saline (PBS) using a glass tissue grinder and extracted in chloroform/methanol (2:1). […] An Alliance system (Waters, Corp, Milford, Mass.) equipped with 2695 Separation Module, 2996 Photodiode Array Detector, a 2475 Multi λ Fluorescence Detector and operating with Empower® software is used for HPLC analysis. […] HPLC quantification is carried out using the Empower® software to determine peak areas. […] Molar quantity per murine eye is determined using calibration curves constructed from known concentrations of purified external standards and by normalizing to the ratio of the HPLC injection volume (10 μL) versus total extract volume.

The subject of a further series is A2E production. The conditions noted are these: Abca4−/− mice, reference 11; cited from earlier work.
Another series deals with serum RBP4 and retinol (Rattus norvegicus, UniProt P04916). The conditions noted are these: reference 15; cited from earlier work.

Turning to `O=C(O)c1ccccc1NC(=O)N1CCC(c2ccccc2C(F)(F)F)CC1` [Compound 1, 2(4-(2-(trifluoromethyl)phenyl)piperidine-1-carboxamido)benzoic acid], the “effect on insulin sensitivity” value in the series with insulin sensitivity was “did not improve insulin sensitivity”. In addition, the “reduction in the serum RBP4 level” value on serum RBP4 is given as about 70%. In addition, the “induction of RBP4-TTR interaction” value at RBP4-TTR interaction is listed as “did not induce RBP4-TTR interaction”. Also, in the series with ERG b-wave, the “effect on ERG b-wave after photobleaching” value is “does not reduce ERG b-wave”. In series [1], the “levels of A2-DHP-PE and atRAL di-PE” value is listed as “also reduced”.

For the molecule `CC1=C(/C=C/C(C)=C/C=C/C(C)=C/C(=O)Nc2ccc(O)cc2)C(C)(C)CCC1` [fenretinide, N-(4-hydroxy-phenyl)retinamide], in the series with A2E production, the “effect on A2E production” value is on record as “reduced A2E production”. For the same molecule, on RBP4-TTR interaction, the “induction of RBP4-TTR interaction” value is recorded as “did not induce RBP4-TTR interaction”. Besides, the “effect on serum RBP4 and retinol” value on serum RBP4 and retinol was “reduce serum RBP4 and retinol”.

The record behind these values is US8980924B2, “Non-retinoid RBP4 antagonist for treatment of age-related macular degeneration and stargardt disease” (The Trustees of Columbia University in the City of New York, priority 2010, dated 2015).
